Values belong to the molecule of their own block, whether it stands above or below them. Calls of active or inactive are those of the source. No cut-off for these calls is given here.
Columns and labels:
[1] = molecular target: T1, Sphingomyelin phosphodiesterase (Homo sapiens, UniProt P17405); experiment: Inhibition of recombinant human aSMase (62 to 628 residues) using HMU-PC as substrate incubated for 2 hrs by fluorescence based assay
T1 sequence (P17405 whole entry): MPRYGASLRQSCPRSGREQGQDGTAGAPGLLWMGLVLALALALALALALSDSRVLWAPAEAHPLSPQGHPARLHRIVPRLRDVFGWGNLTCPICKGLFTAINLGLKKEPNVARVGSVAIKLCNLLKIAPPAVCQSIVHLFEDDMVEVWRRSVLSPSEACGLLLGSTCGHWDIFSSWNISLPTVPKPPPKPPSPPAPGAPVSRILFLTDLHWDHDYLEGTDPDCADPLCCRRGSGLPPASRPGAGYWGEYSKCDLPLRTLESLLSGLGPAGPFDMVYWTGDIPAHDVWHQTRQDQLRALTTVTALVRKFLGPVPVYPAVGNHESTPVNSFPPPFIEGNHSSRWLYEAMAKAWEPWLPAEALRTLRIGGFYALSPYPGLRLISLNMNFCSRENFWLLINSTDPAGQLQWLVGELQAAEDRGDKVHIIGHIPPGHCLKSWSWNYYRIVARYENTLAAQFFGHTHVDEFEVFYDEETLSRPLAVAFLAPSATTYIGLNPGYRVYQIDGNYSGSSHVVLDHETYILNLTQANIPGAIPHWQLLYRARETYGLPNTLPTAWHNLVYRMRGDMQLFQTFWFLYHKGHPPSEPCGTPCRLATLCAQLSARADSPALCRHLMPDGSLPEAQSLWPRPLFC

[2] = molecular target: T2, Sphingomyelin phosphodiesterase (Homo sapiens) (UniProt P17405); experiment: Inhibition of recombinant human aSMase (62 to 628 residues) using HMU-PC as substrate at 50 uM incubated for 2 hrs by fluorescence based assay relative to control
T2 sequence (whole entry): T1 sequence (P17405 whole entry)

[3] = molecular target: T2, Sphingomyelin phosphodiesterase (Homo sapiens); experiment: Inhibition of recombinant human aSMase (62 to 628 residues) using HMU-PC as substrate at 50 uM incubated for 2 hrs by fluorescence based assay
[4] = molecular target: T2, Sphingomyelin phosphodiesterase (Homo sapiens); experiment: Inhibition of recombinant human aSMase (62 to 628 residues) using HMU-PC as substrate at 25 uM incubated for 2 hrs by fluorescence based assay relative to control
[5] = Cytotoxicity against HUVEC cells assessed as cell growth inhibition incubated for 24 hrs by MTT assay; assay type: toxicity, cell-based; details: human
[6] = Cytotoxicity against HUVEC cells assessed as cell growth inhibition incubated for 48 hrs by MTT assay; assay type: toxicity, cell-based; details: human
Mus musculus [7] = experiment: Antiatherosclerotic activity in high-fat diet fed ApoE-/- mouse assessed as reduction in plasma total triacylglycerol level at 20 mg/kg measured after 8 weeks; assay type: functional, organism-based
Mus musculus [8] = experiment: Antiatherosclerotic activity in high-fat diet fed ApoE-/- mouse assessed as reduction in plasma LDL-C level at 20 mg/kg measured after 8 weeks; assay type: functional, organism-based
Mus musculus [9] = experiment: Antiatherosclerotic activity in high-fat diet fed ApoE-/- mouse assessed as reduction in aortic arch lipid accumulation at 20 mg/kg measured after 8 weeks; assay type: functional, organism-based
Mus musculus [10] = experiment: Antiatherosclerotic activity in high-fat diet fed ApoE-/- mouse assessed as reduction in plasma Ox-LDL-C level at 20 mg/kg measured after 8 weeks; assay type: functional, organism-based
Mus musculus [11] = experiment: Antiatherosclerotic activity in high-fat diet fed ApoE-/- mouse assessed as reduction in plasma total cholesterol level at 20 mg/kg measured after 8 weeks; assay type: functional, organism-based
[12] = Inhibition of rat brain aSMase using HMU-PC as substrate incubated for 3 hrs by fluorescence based assay; assay type: tissue-based
HUVEC = experiment: Cytotoxicity against HUVEC cells assessed as cell growth inhibition at 0.5 to 20 uM incubated for 24 to 48 hrs by MTT assay; assay type: toxicity, cell-based; details: human, dose lower 0.5 µM, time lower 24 hrs, dose upper 20 µM, time upper 48 hrs

IC50 [1]: 3.3 µM
Compound: O=C(NO)c1nc(-c2ccc(COc3ccccc3)cc2)no1

IC50 [1]: > 50 µM | inhibition [2]: < 50%
Compound: O=C(Cc1noc(COc2ccc(-c3ccccc3)cc2)n1)NO

inhibition [3]: inactive | inhibition [4]: 13%
Compound: CCCCOc1ccc(-c2nnc(C(=O)NO)o2)cc1

inhibition [3]: inactive
Compound: O=C(NO)c1nc(-c2ccc(CNc3ccc(C(F)(F)F)cc3)cc2)no1

IC50 [1]: 0.47 µM
Compound: O=C(NO)c1nc(COc2ccc(-c3ccc(Cl)cc3)cc2)no1

inhibition [3]: inactive
Compound: O=C(Cc1nc(-c2ccc(COc3ccc(Br)cc3)cc2)no1)NO

IC50 [1]: 4.2 µM
Compound: O=C(NO)c1nc(-c2ccc(COc3ccc(Cl)cc3)cc2)no1

inhibition [4]: 60%
Compound: COc1cc(-c2nnc(C(=O)NO)o2)ccc1OCc1ccccc1

inhibition [3]: inactive
Compound: O=C(Cc1nc(-c2ccc(COc3ccccc3)cc2)no1)NO

inhibition [4]: 3%
Compound: O=C(NO)c1nnc(-c2ccc(OCc3ccccc3)cc2)o1

IC50 [1]: > 50 µM | inhibition [2]: < 50%
Compound: O=C(Cc1noc(-c2ccc(-c3ccc(Cl)cc3)cc2)n1)NO

inhibition [4]: 57%
Compound: CCCCOc1ccc(-c2nnc(C(=O)NO)o2)cc1OC

IC50 [1]: 1 µM
Compound: CCCCOc1ccc(-c2cc(C(=O)NO)no2)cc1

IC50 [12]: 14.1 µM
Compound: COc1c(O)cc2oc3cc(O)c(CC=C(C)C)c(O)c3c(=O)c2c1CC=C(C)C [MANGOSTIN]

IC50 [1]: 37.3 µM
Compound: O=C(NO)c1noc(-c2ccc(Br)cc2)n1

IC50 [1]: > 50 µM | inhibition [2]: < 50%
Compound: O=C(Cc1noc(-c2ccc(Br)cc2)n1)NO

IC50 [1]: 0.51 µM
Compound: O=C(NO)c1nnc(-c2ccc(-c3ccc(Cl)cc3)cc2)o1

IC50 [1]: 0.81 µM
Compound: CC(C)COc1ccc(-c2nnc(C(=O)NO)o2)cc1
Activity (HUVEC): Non-Toxic

Further lines, the molecule ahead of its results:

Compound: O=C(NO)c1nc(-c2ccc(COc3cccc(Cl)c3)cc2)no1
IC50 [1]: 8.4 µM

Compound: O=C(NO)c1cc(-c2ccc(OCc3ccccc3)cc2)on1
IC50 [1]: 7.9 µM

Compound: O=C(NO)c1nc(-c2ccc(COc3ccccc3Cl)cc2)no1
inhibition [3]: inactive

Compound: O=C(NO)c1nc(COc2ccc(-c3ccccc3)cc2)no1
IC50 [1]: 0.83 µM

Compound: O=C(NO)c1nc(-c2ccc(COc3ccc(C(F)(F)F)cc3)cc2)no1
IC50 [1]: 8.1 µM | IC50 at 24 h [5]: 79.1 µM | IC50 at 48 h [6]: 84.3 µM

Compound: CCC(C)(C)C(=O)O[C@H]1C[C@@H](C)C=C2C=C[C@H](C)[C@H](CC[C@@H]3C[C@@H](O)CC(=O)O3)[C@H]21
Activity (Mus musculus [7]): Active | Activity (Mus musculus [8]): Active | Activity (Mus musculus [9]): Active | Activity (Mus musculus [10]): inactive | Activity (Mus musculus [11]): Active

Compound: O=C(NO)c1cc(-c2ccc(-c3ccc(Cl)cc3)cc2)on1
IC50 [1]: > 50 µM | inhibition [2]: < 50%

Compound: O=C(NO)c1noc(COc2ccc(-c3ccccc3)cc2)n1
IC50 [1]: 4.91 µM

Compound: O=C(CCCOc1ccc(-c2cccnc2)cc1)NO
inhibition [3]: inactive

Compound: COc1cc(-c2nnc(C(=O)NO)o2)ccc1OCC(C)C
inhibition [4]: 55%

Compound: O=C(Cc1noc(COc2ccc(-c3ccc(Cl)cc3)cc2)n1)NO
IC50 [1]: 18.7 µM

Compound: O=C(NO)c1nc(-c2ccc(CNc3ccc(Cl)cc3)cc2)no1
inhibition [3]: inactive

Compound: O=C(CCCOc1ccc(-c2ccc(Cl)cc2)cc1)NO
inhibition [3]: inactive

Compound: CC(C)COc1ccc(-c2cc(C(=O)NO)no2)cc1
IC50 [1]: 6.73 µM
